Source: patent US10077436B2, “Beta-glucosidase enzymes for increased biomass saccharification” (Edeniq, Inc., priority 2013, dated 2018)

Molecular target: T1, Aspergillus niger beta-glucosidase, wild type, yEdQ745-BG (CAB75696.1, SEQ ID NO:2) (Aspergillus niger, UniProt Q9P8F4)
T1 construct: strain yEdQ745
T1 sequence (Q9P8F4 20-860): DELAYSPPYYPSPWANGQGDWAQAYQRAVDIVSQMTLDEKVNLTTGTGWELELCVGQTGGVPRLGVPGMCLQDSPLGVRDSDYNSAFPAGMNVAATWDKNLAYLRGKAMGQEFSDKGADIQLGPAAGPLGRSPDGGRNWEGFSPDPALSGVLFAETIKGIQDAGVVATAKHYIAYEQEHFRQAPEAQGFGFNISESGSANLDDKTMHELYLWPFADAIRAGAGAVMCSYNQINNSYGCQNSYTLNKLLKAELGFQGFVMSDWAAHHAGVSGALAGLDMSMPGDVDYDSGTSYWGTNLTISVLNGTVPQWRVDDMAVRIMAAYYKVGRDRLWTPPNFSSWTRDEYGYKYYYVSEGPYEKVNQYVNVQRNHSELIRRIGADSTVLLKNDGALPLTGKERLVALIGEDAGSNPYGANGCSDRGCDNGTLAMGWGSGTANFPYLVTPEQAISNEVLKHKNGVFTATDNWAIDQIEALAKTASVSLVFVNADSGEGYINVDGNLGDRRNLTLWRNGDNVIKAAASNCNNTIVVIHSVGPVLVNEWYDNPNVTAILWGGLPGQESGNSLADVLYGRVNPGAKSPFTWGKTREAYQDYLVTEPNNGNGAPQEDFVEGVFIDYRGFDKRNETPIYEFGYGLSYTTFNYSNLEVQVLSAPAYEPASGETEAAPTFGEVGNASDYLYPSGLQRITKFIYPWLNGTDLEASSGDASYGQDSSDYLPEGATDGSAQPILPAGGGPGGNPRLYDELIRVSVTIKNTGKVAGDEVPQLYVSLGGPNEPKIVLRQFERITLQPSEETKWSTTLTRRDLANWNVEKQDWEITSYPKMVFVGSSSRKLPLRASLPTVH
Assay: BG kinetics, cellobiose hydrolysis assay (HPLC) with glucose as competitive inhibitor, yEdQ745-BG
Format: biochemical
From the text: Accordingly, in some embodiments, the unmodified form of the beta-glucosidase is a wild-type or a naturally occurring beta-glucosidase, such as, for example, a fungal beta-glucosidase. The full nucleic acid and amino acid sequence for numerous fungal beta-glucosidases are available. The amino acid sequence of A. niger beta-glucosidase is provided as SEQ ID NO:2. Thus, in some embodiments, the unmodified beta-glucosidase is from an Aspergillus species. In some embodiments, the unmodified beta-glucosidase is from a Trichoderma species.
The beta-glucosidase (BG) gene from Aspergillus niger (Accession #CAB75696.1) was integrated into the TR3 yeast background at the T4U3 genomic site.
The BG-expressing strains were subsequently used in corn mash and corn stover simultaneous saccharification and fermentation (SSF) studies using flask scale and pilot plant fermentations. A 12-gallon corn stover fermentation was performed at 40° C. in which the beta-glucosidase secreting yeast strain was co-inoculated with three other engineered yeast strains individually expressing endoglucanase II, CBH1, and CBHII. Surviving TR3 Saccharomyces cerevisiae yeast strains individually expressing BG, EGII, CBH1 or CBH2 were recovered by plating onto solid medium. A clonal population of BG-secreting yeast was isolated and the BG gene integration confirmed. […]

Q: Which results are given for `OC[C@H]1OC(O)[C@H](O)[C@@H](O)[C@@H]1O` (some centres unmarked) [glucose]?
A: Ki: 1560 ± 290 µM; Km/Ki (inhibitor influence, Km for cellobiose / Ki for glucose, pH 4.8, 50° C.): 0.93
